Assay results taken from patent publication US7795226B2, “Control of radiation injury” (Biotempt B.V., priority 2006, dated 2010).
Several values for one entry are separate records, joined by “and”; a condition that tells them apart may be missing. Identical values can stand only once.

Assays:
[1] = system: cell-cycle marker pCDG and auxin-responsive marker DR5::GUS; assay: Arabidopsis thaliana seedling cell-cycle analysis (GUS markers); details: for identified as useful peptide for treatment of radiation injury from cell-cycle studies in plants and in vitro proliferation studies: Results from Examples 9 and 10
Protocol: To further study anti-cell-cycle activity of various oligopeptides, a proliferation experiment in Arabidopsis Thaliana seedlings was performed. The aim was to test a group of 140 oligopeptides of varying length for their effect on plant marker gene expression during rapid growth when avid cell division occurs.
The peptides were re-suspended in 1× Phosphate Buffer Saline (PBS) pH 8 to a final concentration of 5 mg/ml. The obtained solutions were then divided through 96-well round bottom plates (Corning Incorporated) at 40 microliters per well. Plates were stored before use at […] for four days. Seeds of Arabidopsis thaliana ecotype Ws-0 were surface sterilized in 2% commercial bleach (Gloria) for ten minutes and washed five times with sterile MQ water. The seeds were then re-suspended with 0.1% agar and plated on MS20 plates supplemented with 80 mg/l Kanamycin.
The plates were placed at […] for two nights and then transferred to a climate room at […] and a 16/8 hours photoperiod. After four days of growth, the seedlings were transferred to 96-well plates containing the peptide solutions (four seedlings per well) and incubated for four and eight hours.
For this experiment, Arabidopsis homozygous seedlings harboring two reporter genes fused to GUS were used. […] After incubation with the compounds, the seedlings were stained for GUS. The staining reaction was performed in 100 mM sodium phosphate buffer (pH 7.0) that contained 10 mM EDTA, 10% DMSO, 0.1% Triton X-100, 2 mM X-Gluc, 0.5 mM K3Fe(CN)6 and 0.5 mM K4Fe(CN)6 at […] for 16 hours. […] Seedlings were fixed and cleared in chloral hydrate solution for detailed microscopic observation and photography under a microscope equipped with DIC optics.
Peptides were tested for an effect on marker gene expression on rapidly growing Arabidopsis young seedlings. This was monitored by changes on GUS distribution in different organs: root, root-hypocotyl transition zone and cotyledons.

[2] = system: high dose LPS (E. coli 026:B6)-induced septic shock in BALB/c mice; assay: high dose LPS-induced septic shock, peptide administered twice; format: in vivo; details: peptide twice (t = 2 and 24 hours) 5 mg/kg
Protocol: Mice used in sepsis or septic shock experiments: Female BALB/c mice of eight to twelve weeks of age were used for all experiments. The animals were bred in our facility under specific pathogen-free conditions according to the protocols described in the […] of European Laboratory Animal Science Associations (FELASA) Working group on Animal Health (Laboratory Animals 28:1-24, 1994).
Injection protocols: For the endotoxin model, BALB/c mice were injected i.p. with 150-300 μg LPS (E. coli 026:B6; Difco Lab., Detroit, Mich., USA). Control groups were treated with PBS i.p. only. To test the effect of peptides, they were dissolved in PBS and injected i.p. at predetermined points in time after LPS treatment.
Mice were scored for sickness severity using the following measurement scheme: • 0 No abnormalities. • 1 Percolated fur, but no detectable behavior differences compared to normal mice. • 2 Percolated fur, huddle reflex, responds to stimuli (such as tap on cage), just as active during handling as healthy mouse. • 3 Slower response to tap on cage, passive or docile when handled, but still curious when alone in a new setting. • 4 Lack of curiosity, little or no response to stimuli, quite immobile. • 5 Labored breathing, inability or slow to self-right after being rolled onto back (moribund, sacrificed). • D Dead.
A second set of septic shock experiments were set up to determine which of the peptides LQG, LQGV (SEQ ID NO:117), VLPALP (SEQ ID NO:140), VLPALPQ (SEQ ID NO:143), MTR, MTRV (SEQ ID NO:119), VVC or AQG, AQGV (SEQ ID NO:120), LAG and LAGV (SEQ ID NO:121) were capable of inhibiting high dose LPS-induced septic shock in mice by treating mice with a double dose of peptide at two and 24 hours after LPS treatment. At each treatment, peptides were used at 5 mg/kg bodyweight. BALB/c mice were injected i.p. with high doses LPS (E. coli 026:B6; Difco Lab., Detroit, Mich. USA), predetermined to be leading to 80 to 100% mortality in 24 to 72 hours.

[3] = system: spleen cell suspensions stimulated with anti-CD3 antibody; assay: anti-CD3 induced proliferation of spleen cells from peptide-treated mice; format: cell-based; details: mice treated i.p. 0.5 or 5 mg/kg for one hour; 0, 12, 24 and 48 hours culture
Protocol: FIG. 4: A test on representative oligopeptides for their effect on proliferation during rapid growth of murine monocytes induced by CD3 when avid cell division occurs. Mice (n=5) were treated i.p. PBS, Nak4 (LQGV (SEQ ID NO:117)), Nak47 (LAGV (SEQ ID NO:121)), Nak46 (AQGV (SEQ ID NO:120)) provided by Ansynth BV, The Netherlands, or Nak46* (AQGV (SEQ ID NO:120) provided by Diosynth BV, The Netherlands). Mice were treated with 0.5 mg/kg of 5 mg/kg peptide for one hour, after which, spleens were isolated and spleen cell suspensions were made. Spleen cell suspensions were pooled per group and cultured in vitro (in three-fold) in the presence of PBS or of anti-CD3 antibody and proliferation was tested at 0, 12, 24 and 48 hours after culture.
To further study anti-cell-cycle activity of various oligopeptides, an in vitro experiment in […] of mice stimulated with anti-CD3 was performed. The aim was to test representative oligopeptides for their effect on proliferation during rapid growth induced by CD3 when avid cell division occurs. Mice (n=5) were treated i.p. PBS, Nak4 (LQGV (SEO ID NO:117)), Nak47 (LAGV (SEQ ID NO:121)), Nak46 (AQGV (SEQ ID NO:120)) provided by Ansynth BV, The Netherlands, or Nak46* (AQGV (SEQ ID NO:120) provided by Diosynth BV, The Netherlands). Mice were treated with 0.5 mg/kg or 5 mg/kg peptide for one hour after which spleens were isolated and spleen cell suspensions were made. Spleen cell suspensions were pooled per group and cultured in vitro (in three-fold) in the presence of PBS or of anti-CD3 antibody and proliferation was tested at 0, 12, 24 and 48 hours after culture.

Substance | identified as useful peptide for treatment of radiation injury from cell-cycle studies in plants and in vitro proliferation studies [1] | mice scored D (dead), effect at t = 48 hours ([2]; LPS dose 10.5) | mice with sickness score 3, effect at t = 24 hours ([2]; LPS dose 10.5) | mice with sickness score 5, effect at t = 24 hours ([2]; LPS dose 10.5) | mice scored D (dead), effect at t = 48 hours ([2]; LPS dose 11) | mice with sickness score 4, effect at t = 24 hours ([2]; LPS dose 11) | mice with sickness score 5, effect at t = 24 hours ([2]; LPS dose 11) | proliferation of anti-CD3 stimulated spleen cells (in words) [3] | mice with sickness score 4, effect at t = 48 hours ([2]; LPS dose 11) | mice with sickness score 2, effect at t = 24 hours ([2]; LPS dose 10.5) | mice with sickness score 1, effect at t = 48 hours ([2]; LPS dose 10.5) | mice with sickness score 1, effect at t = 48 hours ([2]; LPS dose 11) | other results
LAGV (tetramer peptide) | useful | 4 | 1 | 4 | 4 | 1 | 3 | reduction of proliferation |  |  |  |  | mice with sickness score 3, effect at t = 48 hours ([2]; LPS dose 10.5): 1; mice scored D (dead), effect at t = 24 hours ([2]; LPS dose 11): 1; mice with sickness score 3, effect at t = 24 hours ([2]; LPS dose 11): 1; mice with sickness score 3, effect at t = 48 hours ([2]; LPS dose 11): 2
LQGV | useful | 5 |  | 5 | 4 | 2 | 4 | reduction of proliferation | 2 |  |  |  | effect on cell-cycle marker (pCDG) and auxin-responsive marker (DR5::GUS) (in words) ([1]; seedlings incubated four and eight hours, 5 mg/ml peptide solution): clear effect on the tested markers
VLPALPQ (septamer peptide) |  | 2 | 2 | 2 | 2 |  | 6 |  | 3 | 1 |  |  | mice with sickness score 2, effect at t = 48 hours ([2]; LPS dose 10.5): 3; mice with sickness score 5, effect at t = 48 hours ([2]; LPS dose 11): 1; mice with sickness score 2, effect at t = 48 hours ([2]; LPS dose 11, 5 mg/kg): 4 and 2
AQGV | useful |  |  |  |  |  |  | reduction of proliferation |  | 3 | 5 | 6 | mice with sickness score 1, effect at t = 24 hours ([2]; LPS dose 10.5): 2; mice with sickness score 1, effect at t = 24 hours ([2]; LPS dose 11): 2; mice with sickness score 2, effect at t = 24 hours ([2]; LPS dose 11): 4
MTRV | useful |  | 1 |  |  | 2 |  |  |  | 1 | 2 | 6 | mice with sickness score 2, effect at t = 48 hours ([2]; LPS dose 10.5): 3; mice with sickness score 4, effect at t = 24 hours ([2]; LPS dose 10.5): 3; mice with sickness score 2, effect at t = 24 hours ([2]; LPS dose 11): 4
VLPALP (hexamer peptide) | useful | 5 |  | 5 | 6 | 2 | 4 |  | 1 |  |  |  | 
LQG |  | 5 |  | 5 | 6 | 6 |  |  |  |  |  |  | 
MTR |  |  |  |  |  |  |  |  |  | 1 | 5 | 6 | mice with sickness score 1, effect at t = 24 hours ([2]; LPS dose 10.5): 4; mice with sickness score 1, effect at t = 24 hours ([2]; LPS dose 11): 6
